Test results taken from the CheMixHub viscosity set.
± gives the uncertainty stated by the source.

Experiment: xn = mol fraction of the nth substance listed
Details: 101 kPa

Compound: NCCN + OCCCCO
- viscosity (293.15 K, x1 = 0.0733): 100 ± 14 mPa·s
- viscosity (293.15 K, x1 = 0.1427): 101 ± 15 mPa·s
- viscosity (293.15 K, x1 = 0.2094): 98.8 ± 14 mPa·s
- viscosity (293.15 K, x1 = 0.2728): 92.3 ± 12 mPa·s
- viscosity (293.15 K, x1 = 0.3334): 82.3 ± 8.5 mPa·s
- viscosity (293.15 K, x1 = 0.3913): 69.3 ± 4.7 mPa·s
- viscosity (293.15 K, x1 = 0.4467): 55.9 ± 1.3 mPa·s
- viscosity (293.15 K, x1 = 0.4999): 42.7 ± 2.1 mPa·s
- viscosity (293.15 K, x1 = 0.551): 32.1 ± 1.6 mPa·s
- viscosity (293.15 K, x1 = 0.5999): 23.8 ± 1.2 mPa·s
- viscosity (293.15 K, x1 = 0.6469): 17.4 ± 0.91 mPa·s
- viscosity (293.15 K, x1 = 0.6921): 12.7 ± 0.69 mPa·s
- viscosity (293.15 K, x1 = 0.7358): 9.34 ± 0.53 mPa·s
- viscosity (293.15 K, x1 = 0.7777): 7.02 ± 0.42 mPa·s
- viscosity (293.15 K, x1 = 0.8181): 5.28 ± 0.34 mPa·s
- viscosity (293.15 K, x1 = 0.8572): 4.06 ± 0.27 mPa·s
- viscosity (293.15 K, x1 = 0.9311): 2.51 ± 0.17 mPa·s
- viscosity (298.15 K, x1 = 0.0733): 74.8 ± 6.3 mPa·s
- viscosity (298.15 K, x1 = 0.1427): 75.2 ± 6.4 mPa·s
- viscosity (298.15 K, x1 = 0.2094): 72.8 ± 5.7 mPa·s
- viscosity (298.15 K, x1 = 0.2728): 67.6 ± 4.3 mPa·s
- viscosity (298.15 K, x1 = 0.3334): 60.1 ± 2.3 mPa·s
- viscosity (298.15 K, x1 = 0.3913): 50.5 ± 0.29 mPa·s
- viscosity (298.15 K, x1 = 0.4467): 40.8 ± 2 mPa·s
- viscosity (298.15 K, x1 = 0.4999): 31.5 ± 1.6 mPa·s
- viscosity (298.15 K, x1 = 0.551): 23.8 ± 1.2 mPa·s
- viscosity (298.15 K, x1 = 0.5999): 17.9 ± 0.93 mPa·s
- viscosity (298.15 K, x1 = 0.6469): 13.2 ± 0.71 mPa·s
- viscosity (298.15 K, x1 = 0.6921): 9.92 ± 0.56 mPa·s
- viscosity (298.15 K, x1 = 0.7358): 7.44 ± 0.44 mPa·s
- viscosity (298.15 K, x1 = 0.7777): 5.61 ± 0.35 mPa·s
- viscosity (298.15 K, x1 = 0.8181): 4.3 ± 0.28 mPa·s
- viscosity (298.15 K, x1 = 0.8572): 3.38 ± 0.23 mPa·s
- viscosity (298.15 K, x1 = 0.9311): 2.11 ± 0.14 mPa·s
- viscosity (303.15 K, x1 = 0.0733): 55.2 ± 1.2 mPa·s
- viscosity (303.15 K, x1 = 0.1427): 55.3 ± 1.2 mPa·s
- viscosity (303.15 K, x1 = 0.2094): 53.1 ± 0.72 mPa·s
- viscosity (303.15 K, x1 = 0.2728): 49.1 ± 2.4 mPa·s
- viscosity (303.15 K, x1 = 0.3334): 43.5 ± 2.1 mPa·s
- viscosity (303.15 K, x1 = 0.3913): 36.8 ± 1.8 mPa·s
- viscosity (303.15 K, x1 = 0.4467): 29.9 ± 1.5 mPa·s
- viscosity (303.15 K, x1 = 0.4999): 23.4 ± 1.2 mPa·s
- viscosity (303.15 K, x1 = 0.551): 18 ± 0.93 mPa·s
- viscosity (303.15 K, x1 = 0.5999): 13.7 ± 0.73 mPa·s
- viscosity (303.15 K, x1 = 0.6469): 10.2 ± 0.57 mPa·s
- viscosity (303.15 K, x1 = 0.6921): 7.8 ± 0.46 mPa·s
- viscosity (303.15 K, x1 = 0.7358): 5.91 ± 0.37 mPa·s
- viscosity (303.15 K, x1 = 0.7777): 4.57 ± 0.3 mPa·s
- viscosity (303.15 K, x1 = 0.8181): 3.53 ± 0.23 mPa·s
- viscosity (303.15 K, x1 = 0.8572): 2.78 ± 0.19 mPa·s
- viscosity (303.15 K, x1 = 0.9311): 1.78 ± 0.13 mPa·s
- viscosity (308.15 K, x1 = 0.0733): 43.2 ± 2.1 mPa·s
- viscosity (308.15 K, x1 = 0.1427): 44.5 ± 2.2 mPa·s
- viscosity (308.15 K, x1 = 0.2094): 42.5 ± 2.1 mPa·s
- viscosity (308.15 K, x1 = 0.2728): 39.1 ± 1.9 mPa·s
- viscosity (308.15 K, x1 = 0.3334): 34.4 ± 1.7 mPa·s
- viscosity (308.15 K, x1 = 0.3913): 29.2 ± 1.5 mPa·s
- viscosity (308.15 K, x1 = 0.4467): 23.7 ± 1.2 mPa·s
- viscosity (308.15 K, x1 = 0.4999): 19 ± 0.98 mPa·s
- viscosity (308.15 K, x1 = 0.551): 14.6 ± 0.78 mPa·s
- viscosity (308.15 K, x1 = 0.5999): 11.3 ± 0.62 mPa·s
- viscosity (308.15 K, x1 = 0.6469): 8.63 ± 0.5 mPa·s
- viscosity (308.15 K, x1 = 0.6921): 6.62 ± 0.4 mPa·s
- viscosity (308.15 K, x1 = 0.7358): 5.11 ± 0.33 mPa·s
- viscosity (308.15 K, x1 = 0.7777): 4 ± 0.26 mPa·s
- viscosity (308.15 K, x1 = 0.8181): 3.15 ± 0.21 mPa·s
- viscosity (308.15 K, x1 = 0.8572): 2.5 ± 0.17 mPa·s
- viscosity (308.15 K, x1 = 0.9311): 1.63 ± 0.12 mPa·s
- viscosity (313.15 K, x1 = 0.0733): 33.4 ± 1.7 mPa·s
- viscosity (313.15 K, x1 = 0.1427): 33.8 ± 1.7 mPa·s
- viscosity (313.15 K, x1 = 0.2094): 32 ± 1.6 mPa·s
- viscosity (313.15 K, x1 = 0.2728): 29.5 ± 1.5 mPa·s
- viscosity (313.15 K, x1 = 0.3334): 25.7 ± 1.3 mPa·s
- viscosity (313.15 K, x1 = 0.3913): 22 ± 1.1 mPa·s
- viscosity (313.15 K, x1 = 0.4467): 18.2 ± 0.94 mPa·s
- viscosity (313.15 K, x1 = 0.4999): 14.5 ± 0.77 mPa·s
- viscosity (313.15 K, x1 = 0.551): 11.3 ± 0.62 mPa·s
- viscosity (313.15 K, x1 = 0.5999): 8.84 ± 0.51 mPa·s
- viscosity (313.15 K, x1 = 0.6469): 7.05 ± 0.42 mPa·s
- viscosity (313.15 K, x1 = 0.6921): 5.34 ± 0.34 mPa·s
- viscosity (313.15 K, x1 = 0.7358): 4.17 ± 0.28 mPa·s
- viscosity (313.15 K, x1 = 0.7777): 3.28 ± 0.22 mPa·s
- viscosity (313.15 K, x1 = 0.8181): 2.61 ± 0.18 mPa·s
- viscosity (313.15 K, x1 = 0.8572): 2.1 ± 0.14 mPa·s
- viscosity (313.15 K, x1 = 0.9311): 1.41 ± 0.11 mPa·s
- viscosity (318.15 K, x1 = 0.2094): 28.8 ± 1.4 mPa·s
- viscosity (318.15 K, x1 = 0.2728): 25.8 ± 1.3 mPa·s
- viscosity (318.15 K, x1 = 0.3334): 22.6 ± 1.1 mPa·s
- viscosity (318.15 K, x1 = 0.3913): 19.3 ± 0.99 mPa·s
- viscosity (318.15 K, x1 = 0.4467): 16.1 ± 0.85 mPa·s
- viscosity (318.15 K, x1 = 0.4999): 12.9 ± 0.7 mPa·s
- viscosity (318.15 K, x1 = 0.551): 10.3 ± 0.57 mPa·s
- viscosity (318.15 K, x1 = 0.5999): 8.14 ± 0.47 mPa·s
- viscosity (318.15 K, x1 = 0.6469): 6.33 ± 0.39 mPa·s
- viscosity (318.15 K, x1 = 0.6921): 4.99 ± 0.33 mPa·s
- viscosity (318.15 K, x1 = 0.7358): 3.95 ± 0.26 mPa·s
- viscosity (318.15 K, x1 = 0.7777): 3.13 ± 0.21 mPa·s
- viscosity (318.15 K, x1 = 0.8181): 2.51 ± 0.17 mPa·s
- viscosity (318.15 K, x1 = 0.8572): 2.02 ± 0.14 mPa·s
- viscosity (318.15 K, x1 = 0.9311): 1.37 ± 0.11 mPa·s
